Laboratory results from patent US20130302497A1, “Taste Enhancement” (Givaudan S.A., priority 2010, published 2013).

Assay: Expert panel taste evaluation (umami/salty) in chicken broth with or without added choline chloride
Type: in vivo
Details: for Taste description, material alone: without choline chloride; for Taste description, with choline added: choline chloride 7 ppm final concentration
Description: The materials described below were evaluated at the concentration specified by an expert panel in a chicken broth (commercial Swanson chicken broth, with no MSG added, 50% reduced sodium 430 mg/serving) with or without added choline chloride (7 ppm final concentration).

[1] = 10 ppm in Swanson chicken broth, no MSG added, 50% reduced sodium

| SMILES | Taste description, material alone [1] | Taste description, with choline added (10 ppm in chicken broth) | Taste description, with choline added (1 ppm in chicken broth) | Taste description, material alone (1 ppm in chicken broth) | further results |
| --- | --- | --- | --- | --- | --- |
| Cc1cc(O)c(C(=O)CCc2ccccn2)cc1C [1-(2-hydroxy-4,5-dimethylphenyl)-3-(pyridin-2-yl)propan-1-one] | Weak umami | Better, stronger umami, saltier |  |  |  |
| CCCCCOc1ccc(C(=O)CCc2ccccn2)c(O)c1 [1-(2-hydroxy-4-(pentyloxy)phenyl)-3-(pyridine-2-yl)propan-1-one] |  |  | enhanced the saltiness and umami character with a well rounded taste profile | salty and umami |  |
| CC(C)COc1ccc(C(=O)CCc2ccccn2)c(O)c1 [1-(2-hydroxy-4-isobutoxyphenyl)-3-(pyridine-2-yl)propan-1-one] |  |  | enhanced the saltiness and umami character with a well rounded taste profile | Salty and umami |  |
| COc1ccc(C(=O)CCc2ccccn2)c(O)c1 [1-(2-hydroxy-4-methoxyphenyl)-3-(pyridin-2-yl)propan-1-one] | Umami, lingering, body | enhancement of umami, enhancement of saltiness |  |  |  |
| CC(C)=CCC/C(C)=C/CNC(=O)C1CC1 [(E)-N-(3,7-dimethylocta-2,6-dienyl)cyclopropanecarboxamide] |  |  |  |  | Taste description, with choline added (2 ppm in chicken broth): Very full, more salty, umami; Taste description, material alone (2 ppm in chicken broth): Umami, salty, not good aftertaste |
| COc1cc(C)ccc1CNC(=O)C(=O)NCCc1ccccn1 [N-(2-methoxy-4-methylbenzyl)-N′-(2-(pyridin-2-yl)ethyl)oxalamide] |  |  |  |  | Taste description, with choline added (0.5 ppm in chicken broth): more lingering umami, kokumi; Taste description, material alone (0.5 ppm in chicken broth): lingering umami |
